From patent US11952353B2, “STAT3 transcription factor inhibitors and methods of using the same” (The Regents of the University of Colorado, A Body Corporate, priority 2018, dated 2024)

Assays:
[1] = target: T1, full-length, GST-tagged human STAT3 protein (Homo sapiens, UniProt P40763); assay: Recombinant STAT3 ELISA (STAT3/DNA binding); assay type: biochemical; details: 2 μM; for mean value, % of STAT3 only control: 1 hour incubation
T1 construct: full-length, GST-tagged human STAT3 protein and various concentrations of compounds
T1 sequence (P40763 whole entry): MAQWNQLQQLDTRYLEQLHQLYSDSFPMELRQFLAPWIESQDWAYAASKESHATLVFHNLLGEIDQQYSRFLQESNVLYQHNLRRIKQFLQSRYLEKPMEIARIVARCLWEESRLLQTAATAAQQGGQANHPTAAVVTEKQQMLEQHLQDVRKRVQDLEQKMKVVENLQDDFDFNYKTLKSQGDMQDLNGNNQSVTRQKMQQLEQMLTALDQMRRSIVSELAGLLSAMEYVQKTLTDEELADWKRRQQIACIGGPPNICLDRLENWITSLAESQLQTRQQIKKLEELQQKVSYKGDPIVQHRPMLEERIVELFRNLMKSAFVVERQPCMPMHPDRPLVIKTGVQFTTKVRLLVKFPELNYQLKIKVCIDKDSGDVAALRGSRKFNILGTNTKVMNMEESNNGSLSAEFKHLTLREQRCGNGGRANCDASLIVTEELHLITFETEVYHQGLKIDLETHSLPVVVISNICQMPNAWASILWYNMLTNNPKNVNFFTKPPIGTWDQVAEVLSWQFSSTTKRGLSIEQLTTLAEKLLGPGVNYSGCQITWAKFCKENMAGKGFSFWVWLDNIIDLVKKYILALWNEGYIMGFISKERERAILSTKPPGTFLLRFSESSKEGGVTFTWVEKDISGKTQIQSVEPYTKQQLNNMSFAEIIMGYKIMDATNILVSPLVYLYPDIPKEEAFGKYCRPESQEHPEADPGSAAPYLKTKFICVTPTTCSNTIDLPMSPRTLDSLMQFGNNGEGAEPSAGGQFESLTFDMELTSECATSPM
Procedure: Measurement of STAT3 binding to DNA was performed using a TransAM STAT3 ELISA kit (Active Motif) and according to the previously used protocol. Briefly, full-length, GST-tagged human STAT3 protein and various concentrations of compounds to be evaluated or niclosamide were incubated in Complete Lysis Buffer at a final volume of 20 μL containing 0.1 μg recombinant protein for 1 hour with mild agitation. Following incubation with STAT3 inhibitors, samples were added to corresponding ELISA wells with 30 μL of Complete Binding Buffer and inhibition of STAT3 protein binding to the DNA consensus sequence was determined. Data was reported as percent of control.

[2] = tested on: HeLa cells; assay: MTT cell viability assay; assay type: cell-based; details: 24 h; for EC50: Homo sapiens
Procedure: HeLa cells were plated in 96-well plates at a density of 5,000 cells/well in 100 μL of media and were incubated for 24 hours. Media was then aspirated and replaced with 100 μL of media containing various concentrations of compounds ranging from 500 μM-0.0019 μM. Cells were exposed to compounds for 24 hours, following which the media was aspirated and 50 μL MTT solution diluted in media was added to each well at a final concentration of 1 mg/mL. MTT was exposed to cells for 4 hours, aspirated, and then 100 μL of DMSO was added to each well. Plates were agitated for 10 minutes prior to reading absorbance at 540 nm in a microplate reader. Data was normalized and reported as percent of control.

[3] = target: T2, STAT3 (Homo sapiens, UniProt P40763); assay: Cell-based STAT3 DNA-binding ELISA; details: HeLa; for reduction of STAT3/DNA-binding: 24 h, 1 μM; for EC50: 24 h dose response
T2 construct: endogenous in cells; host or cells: HeLa
T2 sequence (P40763 whole entry): as above
Procedure: Nuclear extracts were prepared using a nuclear extraction kit (Signosis) according to product directions. Briefly, 100 mm dishes of cells were washed with 1×PBS and then 1 mL of 1× Buffer I was added and dishes were rocked on ice for 10 minutes. Cells were released from the dish using a sterile scraper and centrifuged at 1200 rpm for 5 minutes at 4° C. The supernatant was discarded and the pellets were resuspended in 1× Buffer II and shaken on ice for 2 hours. Samples were centrifuged at 1200 rpm for 5 minutes at 4° C. and the resulting supernatants containing the nuclear extracts were placed in new microcentrifuge tubes. Protein concentrations of samples were determined via Bradford assay.
HeLa cells were plated at 1 million cells per 100 mm dish and incubated for approximately 72 hours, resulting in serum-starved confluent plates. Plates were then washed with PBS and fresh media was added containing concentrations of compounds to be evaluated or niclosamide for 24 hours. For single concentrations of compounds, cells were treated with 1 μM of compounds, as derived from 24 hour MTT assay EC50 value for niclosamide. Dose-responses of niclosamide, compound 8, and compound 17 were similarly prepared at concentrations ranging from 2-0.0156 μM. Following incubation with compounds, cellular nuclear extracts were prepared.
Measurement of STAT3 binding to DNA was performed using the TransAM STAT3 ELISA kit. Sample wells contained 20 μg of nuclear extracts from treated HeLa cells diluted in 20 μL of Complete Lysis Buffer. The ELISA was then performed as described in the recombinant ELISA section. Data was normalized and reported as percent of control.

[4] = tested on: HeLa cells; assay: Caspase 3/7 assay (apoptosis); assay type: cell-based; details: 24 and 48 hours
Procedure: The effect of STAT3 inhibitor on caspase activity was evaluated using a Caspase-Glo 3/7 kit (Promega) according to product directions. Briefly, HeLa cells were plated in white-walled, clear bottom 96-well plates at a density of 5,000 cells/well in 100 μL of media and were incubated for 24 hours. Media was then aspirated and replaced with 100 μL of media containing 1 μM or 10 μM of STAT3 inhibitor. Cells were exposed to compounds for 24 and 48 hours, following which plates were allowed to equilibrate to room temperature. Reconstituted caspase reagent was added to sample wells in a 1:1 ratio, mixed, and incubated in the dark for 1 hour. Luminescence was read using a microplate reader.

[5] = target: T3, SH2 domain of STAT3 (Homo sapiens, UniProt P40763); details: concentrations above 10 μM; cited from earlier work
T3 construct: 100 nM of full length GST-tagged human STAT3 protein (Abcam); purchased Abcam
T3 sequence (P40763 whole entry, the tested form may be a part): as the sequence (P40763 whole entry) above

[6] = target: T3, SH2 domain of STAT3; assay: Fluorescence polarization (FP) assay; assay type: binding; details: 25 μM
Procedure: FP assay was conducted as previously reported (Steffanie L. Furtek, S. L., et al., Evaluation of quantitative assays for the identification of direct signal transducer and activator of transcription 3 (STAT3) inhibitors (November 2016) Oncotarget 7(47): 77998-78008). Briefly, assay buffer (10 mM HEPES, pH 7.5, 50 mM NaCl, 1 mM EDTA, 2 mM DTT, and 0.01% Triton-X100), 100 nM of full length GST-tagged human STAT3 protein (Abcam), and varying concentrations of compounds were incubated for 1 hour at room temperature with mild agitation in 96-well half area black plates (Corning). Fluorescent peptide 5-FAM-G(pTyr)LPQTV-CONH2 (Genscript) was added to each assay well at a concentration of 10 nM. Final well volumes were 30 μL. Following incubation with fluorescent peptide for 30 minutes at room temperature with mild agitation, plates were examined using FP Fluorescein Dual module with excitation filter FITC FP 480 and emission filter FITC FP P-pol535 and S-pol535. Data was expressed as percent control using the equation % C=(mPdrug−mPfree)/(mPSTAT3−mPfree)*100 where mP is the value for FP measurement.

[7] = tested on: Leukemia Stem cells (LSCs); assay: Leukemia stem cell viability (apoptosis markers, flow cytometry); assay type: cell-based; details: 24 hours
Procedure: (§1) Leukemia Stem cells (LSCs) were incubated with compound 17 (STAT3i) for 24 hours and cell viability was measured. […] Primary human AML cells were treated with compound 17 (STAT3i). The cells were then cultured on methylcellulose and colony formation was measured. […] STAT3 was knocked down in primary human AML samples using shRNA methods (shSTAT3).

[8] = tested on: Primary human AML cells; assay: Colony formation on methylcellulose; assay type: cell-based
Procedure: as §1

[9] = tested on: Cord-blood derived CD34+ normal hematopoietic stem cells; assay: Viability of normal hematopoietic stem cells; assay type: cell-based
Procedure: (§2) Cord-blood derived CD34+ normal hematopoietic stem cells were treated with compound 17 (STAT3i).

[10] = tested on: Cord-blood derived CD34+ normal hematopoietic stem cells; assay: Colony formation of normal hematopoietic stem cells; assay type: cell-based
Procedure: as §2

[11] = tested on: Primary AML cells; assay: Engraftment of treated primary AML cells transplanted into immunodeficient mice; assay type: in vivo; details: then transplanted into immunodeficient mice
Procedure: Primary AML cells were treated with compound 17 (STAT3i) and transplanted into immunodeficient mice.

[12] = tested on: Leukemia Stem cells (LSCs); assay: Seahorse assay of oxygen consumption; assay type: cell-based; details: four hours incubation
Procedure: (§3) Leukemia stem cells (LSCs) were incubated with compound 17 (STAT3i) for four hours. Seahorse assays were then used to measure oxygen consumption. […] Flow cytometry analysis verified that there was no cell death at the time of RNAseq analysis. FIG. 19 is a chart showing the expression changes of various genes involved in OXPHOS after incubation with compound 17. FIG. 20 is an image of western blot analysis of the expression of electron transport chain genes after incubating cells with compound 17.

[13] = tested on: Leukemia Stem cells (LSCs); assay: RNAseq, qPCR and western blot expression analysis in LSCs; assay type: cell-based
Procedure: as §3
Leukemia stem cells (LSCs) were incubated with compound 17 (STAT3i) and RNAseq analysis was subsequently performed. […] Knockdown of Myc in LSCs using siRNA leads to a subsequent downregulation of the glutamine receptor SLC1A5 and a decrease in OXPHOS.

[14] = tested on: Primary AML samples; assay: Glutamine flux, ROS and western blot in primary AML samples; assay type: cell-based
Procedure: Primary AML samples were incubated with heavy labeled glutamine in flux experiments aimed at measuring TCA cycle metabolites. […] FIG. 22 is a graph showing that reactive oxygen species (ROS) is increased in AML cells that were treated with compound 17 (STAT3i).

Question: For `CN(C(=O)c1cc(Cl)ccc1O)c1ccc([N+](=O)[O-])cc1Cl` [Compound 8, 5-Chloro-N-(2-chloro-4-nitrophenyl)-2-hydroxy-N-methylbenzamide], which “reduction of recombinant STAT3/DNA-binding relative to niclosamide” value [1] is on record?
Answer: means less than or equal to niclosamide

Question: What about the EC50 [2] of the same compound?
Answer: 1150 ± 380 nM

Question: And the “reduction of STAT3/DNA-binding” value [3]?
Answer: approx. 80%

Question: What about the EC50 [3] of the same compound?
Answer: 239 ± 39 nM

Question: What about the induction of apoptosis ([4]; 10 μM) of the same compound?
Answer: time-dependent increase in apoptosis

Question: For S3I-1757 [Compound S3I-1757], which “inhibition of fluorescent peptide binding” value [5] is on record?
Answer: complete inhibition

Question: With `Nc1ccc(NC(=O)c2cc(N)ccc2O)c(Cl)c1` [Compound 10, 5-Amino-N-(4-amino-2-chlorophenyl)-2-hydroxybenzamide] as the compound, how does the “affinity for the SH2 domain” value [6] read?
Answer: slight affinity for the SH2 domain

Question: Which “reduction of recombinant STAT3/DNA-binding relative to niclosamide” value [1] does the source give for `O=C(Oc1ccc([N+](=O)[O-])cc1Cl)c1cc(Cl)ccc1O` [Compound 4, 2-Chloro-4-nitrophenyl 5-chloro-2-hydroxybenzoate] here?
Answer: performed worse than niclosamide

Question: And the “mean value, % of STAT3 only control” value [1]?
Answer: 76%

Question: Which “reduction of recombinant STAT3/DNA-binding relative to niclosamide” value [1] does the source give for `O=C(Nc1ccc([N+](=O)[O-])cc1Cl)c1cc([N+](=O)[O-])ccc1O` [Compound 9, N-(2-Chloro-4-nitrophenyl)-2-hydroxy-5-nitrobenzamide] here?
Answer: means less than or equal to niclosamide

Question: Which “reduction of recombinant STAT3/DNA-binding relative to niclosamide” value [1] does the source give for `O=C(Nc1ccc([N+](=O)[O-])cc1Cl)c1cc(Cl)ccc1Cl` [Compound 18, 2,5-Dichloro-N-(2-chloro-4-nitrophenyl)benzamide] here?
Answer: means less than or equal to niclosamide

Question: With `O=C(Nc1ccc([N+](=O)[O-])cc1Cl)c1cc(Cl)c(-c2ccccc2)cc1O` [Compound 14, 2-Chloro-N-(2-chloro-4-nitrophenyl)-5-hydroxy-[1,1′-biphenyl]-4-carboxamide] as the compound, how does the “affinity for the SH2 domain” value [6] read?
Answer: slight affinity for the SH2 domain

Question: Which “affinity for the SH2 domain” value [6] does the source give for `O=C(Nc1ccc([N+](=O)[O-])cc1Br)c1cc(Br)ccc1O` [Compound 2, 5-Bromo-N-(2-bromo-4-nitrophenyl)-2-hydroxybenzamide] here?
Answer: slight affinity for the SH2 domain

Question: For `O=C(Nc1ccc([N+](=O)[O-])cc1Cl)c1cc(Cl)c(-c2ccco2)cc1O` [Compound 17, 5-Chloro-N-(2-chloro-4-nitrophenyl)-4-(furan-2-yl)-2-hydroxybenzamide], which “reduction of recombinant STAT3/DNA-binding relative to niclosamide” value [1] is on record?
Answer: means less than or equal to niclosamide

Question: What about the total cell viability [2] of the same compound?
Answer: did not drop below 50% until high concentrations

Question: What about the EC50 [2] of the same compound?
Answer: 315 ± 70 nM

Question: And the “reduction of STAT3/DNA-binding” value [3]?
Answer: approx. 80%

Question: And the EC50 [3]?
Answer: 59 ± 11 nM

Question: What about the induction of apoptosis ([4]; 1 μM) of the same compound?
Answer: time-dependent increase in apoptosis

Question: What about the “cell viability of LSCs” value [7] of the same compound?
Answer: significant cell death

Question: What about the “colony formation of primary human AML cells” value [8] of the same compound?
Answer: significant decrease in colony formation

Question: What about the “viability of CD34+ normal hematopoietic stem cells” value [9] of the same compound?
Answer: not affected

Question: And the “colony formation of CD34+ normal hematopoietic stem cells” value [10]?
Answer: not affected

Question: What about the “engraftment of primary AML cells” value [11] of the same compound?
Answer: decreased engraftment

Question: And the oxygen consumption [12]?
Answer: decrease in oxygen consumption

Question: And the “expression of OXPHOS and mitochondrial matrix genes” value [13]?
Answer: decrease in the expression

Question: What about the Myc expression ([13]; verified by qPCR and western blot) of the same compound?
Answer: decreased

Question: And the “reactive oxygen species (ROS)” value ([14]; AML cells)?
Answer: increased

Question: What about the TCA cycle metabolites ([14]; heavy labeled glutamine flux) of the same compound?
Answer: decrease in TCA cycle metabolites

Question: What about the SLCA15 expression ([14]; western blot) of the same compound?
Answer: downregulated

Question: For `O=C(Nc1ccccc1Cl)c1cc(Cl)ccc1O` [Compound 3, 5-Chloro-N-(2-chlorophenyl)-2-hydroxybenzamide], which “reduction of recombinant STAT3/DNA-binding relative to niclosamide” value [1] is on record?
Answer: performed worse than niclosamide

Question: And the “mean value, % of STAT3 only control” value [1]?
Answer: 80%

Question: Which EC50 [2] does the source give for `O=C(Nc1ccc([N+](=O)[O-])cc1Cl)c1cc(Cl)ccc1O` [niclosamide, reference compound] here?
Answer: 1000 nM

Question: And the “reduction of STAT3/DNA-binding” value [3]?
Answer: approx. 80%

Question: What about the EC50 [3] of the same compound?
Answer: 179 ± 28 nM

Question: What about the induction of apoptosis ([4]; 1 μM) of the same compound?
Answer: only a slight increase in apoptosis

Question: And the induction of apoptosis ([4]; 10 μM)?
Answer: twice as much apoptosis
